Results published in patent publication US20140147411A1, “METHODS OF TREATING CANCER AND TESTING MUTATION ZYGOSITY RELATED THERETO” (U.S. GOVERNMENT represented by the UNITED STATES DEPARTMENT …, priority 2012, published 2014).

Experiments:
AKT (serine 473) = assay: AKT phosphorylation in the melanoma cell model system; format: cell-based; settings: BEZ235
melanoma cell lines = assay: MHC induction by IFN-γ with PI3K/mTOR inhibitor in melanoma cell lines, flow cytometry; settings: BEZ235 0.5 μM, MHC class I and class II, melanoma cell lines of FIG. 4
Description: Fold induction of cell surface MHC class I was calculated by dividing averaged MFI values for cells treated as indicated along the x-axis by averaged MFI values of cells treated with vehicle (DMSO) alone. […] MHC class I and class II levels were assessed as in part A.
BEZ235 a dual PI3K/mammalian target of rapamycin inhibitor was used.

[1] = tested on: phospho-ERK (Thr 202/Tyr 204); assay: ERK phosphorylation by western blot in A375 cells; format: cell-based; settings: 10 μM PLX4720, western blot, 24 hours
Description: A representative western blot is shown. A375 cells were pre-treated with vehicle (DMSO) or 10 μM of PLX4720 60 minutes prior to the addition of IFN-γ (100 U/ml). Whole cell lysates were prepared 24 hours later and levels of phospho-ERK (Thr 202/Tyr 204) and total ERK protein were analyzed by western blot. […] The error bars represent the SEM.
A representative western blot is shown. […] Cell lysates were prepared 72 hours later and levels of total ERK and phospho-ERK (Thr 202/Tyr 204) protein analyzed by western blot. […] GAPDH levels are shown as a loading control. […] Control cells were treated only with vehicle (DMSO).

A375 melanoma cells = assay: Cell surface MHC class I, B2M and MHC class II by flow cytometry in A375 cells after interferon
Description: A representative western blot is shown. A375 cells were pre-treated with vehicle (DMSO) or 10 μM of PLX4720 60 minutes prior to the addition of IFN-γ (100 U/ml). Whole cell lysates were prepared 24 hours later and levels of phospho-ERK (Thr 202/Tyr 204) and total ERK protein were analyzed by western blot. B, A representative flow cytometry histogram is shown. A375 cells were pre-treated with vehicle (DMSO, black line, unfilled) or 10 μM PLX4720 (black dotted line) for 60 minutes prior to the addition of IFN-γ (10 U/ml). Control cells were left untreated (gray filled). Cell surface MHC class I was analyzed using flow cytometry 72 hours later using an antibody that recognizes a shared epitope on HLA-A, B and C molecules. Cells stained with an isotype control antibody are shown (black filled). C, Averaged mean fluorescence intensity (MFI) from three independent flow cytometry experiments is shown (y-axis) and treatments are indicated along the x-axis. The error bars represent the SEM. (*, p<0.05; two-tailed paired Student's t test, as compared to cells treated with IFN-γ and pre-treated with DMSO).
A representative western blot is shown. […] Cell lysates were prepared 72 hours later and levels of total ERK and phospho-ERK (Thr 202/Tyr 204) protein analyzed by western blot. […] Cell surface MHC class I (HLA-A, B, C), B2M, and MHC class II (HLA-DR) levels were analyzed 72 hours later using flow cytometry. Values represent the average mean fluorescence intensity (MFI) for three independent experiments and error bars represent the SEM. […] GAPDH levels are shown as a loading control. D, Induction of HLA-A, HLA-DR, CIITA and NLRC5 mRNA in A375 cells. […] Control cells were treated only with vehicle (DMSO). Steady state mRNA levels were measured using quantitative real-time RT-PCR 72 hours later and are expressed as fold over vehicle (DMSO) treated cells. Error bars represent SEM from at least 3 independent experiments. (*, p<0.05, **, p<0.01, 2-tailed paired Student's t test, as compared to cells treated with IFN-γ and pre-treated with DMSO)
Error bars represent the SEM. […] Flow cytometry was used to select transfected (GFP positive) and non-transfected (GFP negative) cells and MHC class I levels were measured on these two cell populations. Average values from three independent experiments are shown. MHC class I levels are expressed as the % of MHC class I on control cells (cells non-transfected using the empty vector plasmid). […] Cells stained with an isotype control antibody are shown in black filled.

CIITA mRNA = settings: SKMEL-28 cells, vemurafenib 0.5 μM, IFN-γ 20 U/ml
Description: (§1) Cell surface MHC class I (HLA-A, B and C, top panels) and MHC class II (HLA-DR, lower panels) levels were measured 72 hours later using flow cytometry. […] Fold induction of cell surface MHC class I was calculated by dividing averaged MFI values for cells treated as indicated along the x-axis by averaged MFI values of cells treated with vehicle (DMSO) alone. Fold inductions for heterozygous cell lines (MALME-3M, SKMEL-3, and SKMEL-5) were averaged together (gray bars) as were the fold inductions for three homozygous (white bars) cell lines (A375, HT-144, and SKMEL-28). […] The DMSO-treated cells (gray diamonds) from part A are compared to those treated with BEZ235 (0.5 μM, black squares). MHC class I and class II levels were assessed as in part A.

SKMEL-3 cells = assay: Cell surface MHC by flow cytometry in SKMEL-3 cells after IFN-γ; settings: SKMEL3 cells (heterozygous for BRAFV600E), vemurafenib 0.5 μM, 72 hours
Description: as §1

SKMEL-5 cells = assay: Cell surface MHC by flow cytometry in SKMEL-5 cells after IFN-γ; settings: SKMEL5 cells (heterozygous for BRAFV600E), vemurafenib 0.5 μM, 72 hours
Description: as §1

MALME-3M cells = assay: Cell surface MHC by flow cytometry in MALME-3M cells after IFN-γ; settings: MALME-3M cells (heterozygous for BRAFV600E), vemurafenib 0.5 μM, 72 hours
Description: as §1

[2] = tested on: SKMEL-2 (BRAF codon 600 wild-type) cells; assay: Cell surface MHC by flow cytometry in SKMEL-2 cells after IFN-γ
Description: Values represent the average mean fluorescence intensity (MFI) for three independent experiments and error bars represent the SEM. […] Control cells were treated only with vehicle (DMSO). […] Error bars represent SEM from at least 3 independent experiments.

[3] = tested on: BRAFV600E homozygous cell lines (A375, HT-144, and SKMEL-28); assay: Fold MHC class I induction averaged over BRAFV600E homozygous cell lines; settings: MFI over vehicle (DMSO) alone
Description: The y-axis represents average MFI for at least three independent experiments except those for MeWo and SKMEL-5 which are the average of two independent experiments. […] Fold induction of cell surface MHC class I was calculated by dividing averaged MFI values for cells treated as indicated along the x-axis by averaged MFI values of cells treated with vehicle (DMSO) alone. […] MHC class I and class II levels were assessed as in part A.

[4] = tested on: BRAFV600E heterozygous cell lines (MALME-3M, SKMEL-3, and SKMEL-5); assay: Fold MHC class I induction averaged over BRAFV600E heterozygous cell lines; settings: MFI over vehicle (DMSO) alone
Description: as §1

[5] = A375 cells, sorafenib 10 μM prior to IFN-γ 2000 U/ml, not statistically significant (ANOVA)

Molecule: Cn1c(=O)n(-c2ccc(C(C)(C)C#N)cc2)c2c3cc(-c4cnc5ccccc5c4)ccc3ncc21 [BEZ235]
- phosphorylation of AKT (serine 473) (AKT (serine 473)): reduced the phosphorylation of AKT (serine 473)
- induction of MHC molecules by IFN-γ (melanoma cell lines): did not enhance the induction of MHC molecules by IFN-γ, rather, it attenuated MHC induction in some of the cell lines examined

Molecule: CCCS(=O)(=O)Nc1ccc(F)c(C(=O)c2c[nH]c3ncc(Cl)cc23)c1F [PLX4720]
- levels of ERK phosphorylation [1]: reduced levels of ERK phosphorylation
- induction of MHCI molecules by IFN-γ (A375 melanoma cells; A375 cells, 10 μM PLX4720 60 minutes prior to IFN-γ (10 U/ml), 72 hours): enhanced the induction of MHCI molecules by IFN-γ

Molecule: CNC(=O)c1cc(Oc2ccc(NC(=O)Nc3ccc(Cl)c(C(F)(F)F)c3)cc2)ccn1 [sorafenib]
- induction of MHCI molecules by IFN-γ (A375 melanoma cells; [5]): enhanced the induction of MHCI molecules
- induction of the MHCII molecule HLA-DR by IFN-γ (A375 melanoma cells; [5]): decreased the induction of the MHCII molecule HLA-DR

Molecule: CCCS(=O)(=O)Nc1ccc(F)c(C(=O)c2c[nH]c3ncc(-c4ccc(Cl)cc4)cc23)c1F [vemurafenib]
- time after the addition of IFN-γ at which the effect on CIITA mRNA was most pronounced (CIITA mRNA): 48 h
- induction of MHCI molecules by IFN-γ (SKMEL-3 cells): no effect
- induction of MHCII molecules by IFN-γ (SKMEL-3 cells): no effect
- induction of MHCI molecules by IFN-γ (SKMEL-5 cells): no effect
- induction of MHCII molecules by IFN-γ (SKMEL-5 cells): no effect
- induction of MHCI molecules by IFN-γ (MALME-3M cells): no effect
- induction of MHCII molecules by IFN-γ (MALME-3M cells): no effect

B1: IFN-γ: a type II interferon, cytokine, potent inducer of MHC expression (protein, UniProt P01579 24-161, looked up)
Interferon gamma: QDPYVKEAENLKKYFNAGHSDVADNGTLFLGILKNWKEESDRKIMQSQIVSFYFKLFKNFKDDQSIQKSVETIKEDMNVKFFNSNKKKRDDFEKLTNYSVTDLNVQRKAIHELIQVMAELSPAAKTGKRKRSQMLFRG
- cell surface MHCI, MHCII and B2M protein levels [2]: increases in cell surface MHCI, MHCII and B2M protein levels
- fold increase of MHCI levels by IFN-γ [3]: around four
- fold increase of MHCI levels by IFN-γ [4]: around four
- MHCI cell surface expression (A375 melanoma cells; A375 cells treated with IFN-γ alone, flow cytometry): lead to an induction of MHCI cell surface expression
